The compounds below were run against human Nav1.7 (Homo sapiens (Human), UniProt Q15858) (assay: FLIPR or FLIPR TETRA sodium dye assay with KCl and test article pre-incubation). Conditions: read-out: Nav1.7 IC50 (μM) ± SEM.
Sequence of human Nav1.7 (Q15858 other isoform, or with tags, fused parts or gaps): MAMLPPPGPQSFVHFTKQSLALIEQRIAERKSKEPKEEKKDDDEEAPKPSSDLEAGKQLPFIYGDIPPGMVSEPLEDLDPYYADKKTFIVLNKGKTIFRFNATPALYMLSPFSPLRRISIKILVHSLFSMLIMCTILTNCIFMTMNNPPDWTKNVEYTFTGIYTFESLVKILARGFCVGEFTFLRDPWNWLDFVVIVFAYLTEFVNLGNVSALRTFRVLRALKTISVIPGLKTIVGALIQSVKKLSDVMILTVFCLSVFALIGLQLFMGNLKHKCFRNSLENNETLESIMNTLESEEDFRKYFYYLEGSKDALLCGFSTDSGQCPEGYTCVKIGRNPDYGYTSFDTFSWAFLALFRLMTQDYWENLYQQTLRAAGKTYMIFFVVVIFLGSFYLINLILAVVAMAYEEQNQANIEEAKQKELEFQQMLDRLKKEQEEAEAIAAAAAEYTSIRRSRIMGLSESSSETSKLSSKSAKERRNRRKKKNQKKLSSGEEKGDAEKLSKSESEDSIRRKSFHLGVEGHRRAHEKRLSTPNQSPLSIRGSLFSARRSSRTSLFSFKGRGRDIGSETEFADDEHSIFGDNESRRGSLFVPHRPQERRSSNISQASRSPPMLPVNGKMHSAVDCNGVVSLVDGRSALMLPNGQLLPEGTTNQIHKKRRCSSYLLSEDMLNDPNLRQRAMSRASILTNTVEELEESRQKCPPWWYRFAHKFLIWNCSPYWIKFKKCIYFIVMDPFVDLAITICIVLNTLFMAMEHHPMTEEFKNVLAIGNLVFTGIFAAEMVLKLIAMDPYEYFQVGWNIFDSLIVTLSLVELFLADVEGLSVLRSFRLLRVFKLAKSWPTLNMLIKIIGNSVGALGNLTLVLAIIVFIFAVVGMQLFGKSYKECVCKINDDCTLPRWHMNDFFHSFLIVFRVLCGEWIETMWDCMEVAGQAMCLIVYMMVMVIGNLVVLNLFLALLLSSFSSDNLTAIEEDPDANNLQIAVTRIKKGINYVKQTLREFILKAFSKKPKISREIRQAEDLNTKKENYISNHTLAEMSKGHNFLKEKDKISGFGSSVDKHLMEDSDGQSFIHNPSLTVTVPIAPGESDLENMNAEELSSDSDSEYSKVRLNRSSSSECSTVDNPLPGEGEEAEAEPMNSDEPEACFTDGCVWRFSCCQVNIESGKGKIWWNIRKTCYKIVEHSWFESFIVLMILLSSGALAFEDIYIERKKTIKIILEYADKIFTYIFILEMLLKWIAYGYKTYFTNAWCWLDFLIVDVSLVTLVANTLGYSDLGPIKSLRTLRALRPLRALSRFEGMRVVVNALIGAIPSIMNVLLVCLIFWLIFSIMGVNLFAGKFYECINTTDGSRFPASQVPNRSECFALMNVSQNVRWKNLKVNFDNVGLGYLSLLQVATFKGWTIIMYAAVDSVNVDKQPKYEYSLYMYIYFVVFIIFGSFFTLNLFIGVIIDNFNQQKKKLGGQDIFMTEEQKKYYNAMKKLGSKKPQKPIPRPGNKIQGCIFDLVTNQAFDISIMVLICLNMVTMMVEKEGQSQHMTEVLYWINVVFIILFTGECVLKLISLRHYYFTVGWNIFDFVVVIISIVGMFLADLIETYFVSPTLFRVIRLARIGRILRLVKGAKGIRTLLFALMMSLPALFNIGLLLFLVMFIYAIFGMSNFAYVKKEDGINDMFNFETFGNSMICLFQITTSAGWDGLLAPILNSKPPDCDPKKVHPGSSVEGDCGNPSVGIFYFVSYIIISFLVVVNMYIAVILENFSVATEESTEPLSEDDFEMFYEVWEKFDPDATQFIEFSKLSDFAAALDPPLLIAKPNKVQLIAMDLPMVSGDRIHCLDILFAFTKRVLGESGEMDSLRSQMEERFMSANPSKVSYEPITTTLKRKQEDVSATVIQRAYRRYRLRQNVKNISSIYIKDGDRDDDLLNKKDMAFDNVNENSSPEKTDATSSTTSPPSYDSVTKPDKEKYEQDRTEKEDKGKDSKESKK
Assay type: cell-based
Work on `NC(=O)c1cc(-c2ccc(-c3ccc(F)cc3)cc2)cc([C@H](O)CO)n1` [compound 160, 6-((S)-1,2-Dihydroxy-ethyl)-4-(4′-fluoro-biphenyl-4-yl)pyridine-2-carboxylic acid amide] yielded an IC50 of 0.49 ± 0.12 µM. `O=C1NCCN1CCNCCc1cccc(-c2ccc(Oc3ccc(F)cc3)cc2)n1` [compound 64, 1-(2-((2-(6-(4-(4-fluorophenoxy)phenyl)pyridin-2-yl)ethyl)amino)ethyl) imidazolidin-2-one] was tested, and the IC50 was 0.1 ± 0.3 µM. In the case of `CS(=O)(=O)c1ccc(Oc2ccc(-c3cccc(CNCCN4CCNC4=O)n3)cc2)cc1` [compound 71, 1-(2-(((6-(4-(4-(methylsulfonyl)phenoxy)phenyl)pyridin-2-yl)methyl)amino)ethyl) imidazolidin-2-one], the IC50 is reported as 0.35 ± 0.05 µM. Work on `N#Cc1ccc(Oc2ccc(-c3cccc([C@@H](O)CO)n3)cc2)cc1` [compound 13, (R)-4-(4-(6-(1,2-dihydroxyethyl)pyridin-2-yl)phenoxy) benzonitrile] yielded an IC50 of 0.89 ± 0.08 µM. In the case of `O=S(=O)(Nc1ccc(F)cc1)c1ccc(-c2cccc([C@H](O)CO)n2)cc1` [compound 124, (S)-4-(6-(1,2-dihydroxyethyl)pyridin-2-yl)-N-(4-fluorophenyl) benzenesulfonamide], the IC50 is reported as 2.5 ± 0.34 µM. `Cc1cc(C(=O)NCCN2CCCCC2)cc(-c2ccc(Oc3ccc(F)cc3)cc2)n1` [compound 107, 2-(4-(4-fluorophenoxy)phenyl)-6-methyl-N-(2-(piperidin-1-yl)ethyl) isonicotinamide] gave an IC50 of 0.4 ± 0.12 µM. With `N#Cc1ccc(Oc2ccc(-c3cc([C@H](O)CO)cc(C(N)=O)n3)cc2)cc1C(F)(F)F` [compound 31, (S)-6-(4-(4-cyano-3-(trifluoromethyl)phenoxy)phenyl)-4-(1,2-dihydroxyethyl) picolinamide] the IC50 was 0.61 ± 0.1 µM. `NC(=O)c1cc(C2=CCNCC2)cc(-c2ccc(Oc3ccc(F)cc3)cc2)n1` [compound 122, 6-(4-(4-fluorophenoxy)phenyl)-1′,2′,3′,6′-tetrahydro-[4,4'-bipyridine]-2-carboxamide] showed an IC50 of 0.14 ± 0.03 µM.

Same assay, conditions: recombinant human Nav1.7 in HEK293 cells; CoroNa Green sodium dye; veratridine + scorpion venom; read-out: Nav1.7 IC50 (μM) ± SEM
Work on `N#CCCN(c1ccccc1)c1cc(-c2ccc(Oc3ccc(F)cc3)cc2)cc(C(N)=O)n1` [compound 115, 6-((2-cyanoethyl) (phenyl)amino)-4-(4-(4-fluorophenoxy)phenyl)picolinamide] yielded an IC50 of 0.08 ± 0.03 µM. `CN(c1ccccc1)c1cc(C(N)=O)nc(-c2ccc(Oc3ccc(C#N)cc3)cc2)c1` [compound 147, 6-[4-(4-Cyano-phenoxy)-phenyl]-4-(methyl-phenyl-amino)-pyridine-2-carboxylic acid amide] showed an IC50 of 1.6 ± 0.26 µM. `N#Cc1cc([C@H](O)CO)cc(-c2ccc(Oc3ccc(F)cc3)cc2)n1` [compound 112, (S)-4-(1,2-dihydroxyethyl)-6-(4-(4-fluorophenoxy)phenyl)picolinonitrile] showed an IC50 of 2.12 ± 0.54 µM. With `CS(=O)(=O)NCc1cc(C(N)=O)nc(-c2ccc(Oc3ccc(F)cc3)cc2)c1` [compound 50, 6-(4-(4-fluorophenoxy)phenyl)-4-(methylsulfonamido-methyl)picolinamide] the IC50 was 0.14 ± 0.03 µM. `CN(c1ccccc1)c1cc(C(N)=O)nc(-c2ccc(Oc3ccc(F)cc3)cc2)c1` [compound 43, 6-(4-(4-fluorophenoxy)phenyl)-4-(methyl (phenyl)amino) picolinamide] was tested, and the IC50 was 0.93 ± 0.17 µM. Work on `NC(=O)c1cc(-c2ccc(Oc3ccc(OC(F)(F)F)cc3)cc2)cc([C@H](O)CO)n1` [compound 156, 6-((S)-1,2-Dihydroxy-ethyl)-4-[4-(4-trifluoromethoxy-phenoxy)phenyl]-pyridine-2-carboxylic acid amide] yielded an IC50 of 0.13 ± 0.02 µM. In the case of `NC(=O)c1cc(N(CCC(=O)O)c2ccccc2)cc(-c2ccc(Oc3ccc(F)cc3)cc2)n1` [compound 145, 3-({2-Carbamoyl-6-[4-(4-fluoro-phenoxy)-phenyl]-pyridin-4-yl}phenyl-amino)-propionic acid], the IC50 is reported as 1.25 ± 0.03 µM. Work on `NC(=O)CN1CCC(CNc2cc(C(N)=O)nc(-c3ccc(Oc4ccc(F)cc4)cc3)c2)CC1` [compound 52, 4-(((1-(2-amino-2-oxoethyl)piperidin-4-yl)methyl)amino)-6-(4-(4-fluorophenoxy)phenyl) picolinamide] yielded an IC50 of 0.2 ± 0.08 µM. Work on `NC(=O)c1cc(NCCN2CCOCC2)cc(-c2ccc(Oc3ccc(F)cc3)cc2)n1` [compound 53, 6-(4-(4-fluorophenoxy)phenyl)-4-((2-morpholinoethyl)amino) picolinamide] yielded an IC50 of 0.22 ± 0.06 µM. For `NC(=O)c1cc(-c2ccc(Oc3ccc(F)cc3)cc2)cc(N(CCC(=O)O)c2ccccc2)n1` [compound 144, 3-({6-Carbamoyl-4-[4-(4-fluoro-phenoxy)-phenyl]-pyridin-2-yl}phenyl-amino)-propionic acid], the IC50 was over 20 µM. In the case of `O=C1NCCN1CCNCc1ccnc(-c2ccc(Oc3ccc(F)cc3)cc2)c1` [compound 105, 1-(2-(((2-(4-(4-fluorophenoxy)phenyl)pyridin-4-yl)methyl)amino)ethyl) imidazolidin-2-one], the IC50 is reported as 0.53 ± 0.08 µM. `NC(=O)c1cc(NC(=O)Nc2ccccc2)cc(-c2ccc(Oc3ccc(F)cc3)cc2)n1` [compound 84, 6-(4-(4-fluorophenoxy)phenyl)-4-(3-phenylureido) picolinamide] was tested, and the IC50 was 4.11 ± 0.93 µM. `N#Cc1ccc(Oc2ccc(-c3cccc(CNCCN4CCNC4=O)n3)cc2)cc1` [compound 67, 4-(4-(6-(((2-(2-oxoimidazolidin-1-yl)ethyl)amino)methyl)pyridin-2-yl)phenoxy)benzonitrile] was tested, and the IC50 was 0.17 ± 0.01 µM. Compound `C[C@H](Nc1cc(C#N)cc(-c2ccc(Oc3ccc(F)cc3)cc2)n1)C(N)=O` [compound 166, (S)-2-((4-cyano-6-(4-(4-fluorophenoxy)phenyl)pyridin-2-yl)amino)propanamide] has an IC50 of 4.32 ± 1 µM. In the case of `NC(=O)c1cc(NCc2cccnc2)cc(-c2ccc(Oc3ccc(F)cc3)cc2)n1` [compound 45, 6-(4-(4-fluorophenoxy)phenyl)-4-((pyridin-3-ylmethyl)amino) picolinamide], the IC50 is reported as 0.15 ± 0.01 µM. `O=C1NCCN1CCNCc1cccc(-c2ccc(Oc3ccc(C(F)(F)F)cc3)cc2)n1` [compound 61, 1-(2-(((6-(4-(4-(trifluoromethyl)phenoxy)phenyl)pyridin-2-yl)methyl)amino)ethyl)imidazolidin-2-one] gave an IC50 of 0.03 ± 0.01 µM. Work on `C[C@@H](O)[C@H](O)c1cc(C(N)=O)nc(-c2ccc(Oc3ccc(F)cc3)cc2)c1` [compound 131, 4-((1R,2R)-1,2-dihydroxypropyl)-6-(4-(4-fluorophenoxy)phenyl)picolinamide] yielded an IC50 of 2.78 ± 0.46 µM. Compound `NC(=O)c1cc(NCc2ccccn2)cc(-c2ccc(Oc3ccc(F)cc3)cc2)n1` [compound 47, 6-(4-(4-fluorophenoxy)phenyl)-4-((pyridin-2-ylmethyl)amino) picolinamide] has an IC50 of 0.22 ± 0.06 µM. Work on `CN(c1ccccc1)c1cc(-c2ccc(Oc3ccc(C(F)(F)F)cc3)cc2)cc(C(N)=O)n1` [compound 148, 6-(Methyl-phenyl-amino)-4-[4-(4-trifluoromethyl-phenoxy)phenyl]-pyridine-2-carboxylic acid amide] yielded an IC50 of 0.25 ± 0.08 µM. For `O=C(O)c1ccc2ccn(-c3cc(C(=O)O)nc(-c4ccc(Oc5ccc(F)cc5)cc4)c3)c2c1` [compound 130, 1-(2-carboxy-6-(4-(4-fluorophenoxy)phenyl)pyridin-4-yl)-1H-indole-6-carboxylic acid], the IC50 was 2.47 ± 0.73 µM. `CN(c1ccccc1)c1cc(-c2ccc(Oc3ccc(F)cc3)cc2)cc(C(=O)O)n1` [compound 119, 4-(4-(4-fluorophenoxy)phenyl)-6-(methyl (phenyl)amino) picolinic acid] gave an IC50 of 2.46 ± 0.8 µM. `CN(c1ccccc1)c1cc(-c2ccc(Oc3ccc(C#N)cc3)cc2)cc(C(N)=O)n1` [compound 146, 4-[4-(4-Cyano-phenoxy)-phenyl]-6-(methyl-phenyl-amino)-pyridine2-carboxylic acid amide] gave an IC50 of 0.09 ± 0.004 µM. Work on `N#Cc1ccc(Oc2ccc(-c3cccc(CNCCN4CCNC4=O)n3)cc2)c(C(F)(F)F)c1` [compound 65, 4-(4-(6-(((2-(2-oxoimidazolidin-1-yl)ethyl)amino)methyl)pyridin-2-yl)phenoxy)-3-(trifluoromethyl) benzonitrile] yielded an IC50 of 0.12 ± 0.02 µM. For `N#Cc1cccc2c1ccn2-c1cc(C(N)=O)nc(-c2ccc(Oc3ccc(F)cc3)cc2)c1` [compound 99, 4-(4-cyano-1H-indol-1-yl)-6-(4-(4-fluorophenoxy)phenyl) picolinamide], the IC50 was 0.1 ± 0.03 µM. Compound `NC(=O)c1cc([C@@H](O)CO)cc(-c2ccc(-c3ccc(F)cc3)cc2)n1` [compound 155, 4-((R)-1,2-Dihydroxy-ethyl)-6-(4′-fluoro-biphenyl-4-yl)pyridine-2-carboxylic acid amide] has an IC50 of 2.78 ± 0.61 µM. `NC(=O)c1cc(-c2ccc(Oc3ccc(F)cc3)cc2)cc(NC(CO)CO)n1` [compound 128, 6-((1,3-dihydroxypropan-2-yl)amino)-4-(4-(4-fluorophenoxy)phenyl) picolinamide] gave an IC50 of 1.29 ± 0.17 µM. Work on `O=C(O)CN(c1ccccc1)c1cc(C(=O)O)nc(-c2ccc(Oc3ccc(F)cc3)cc2)c1` [compound 92, 4-((carboxymethyl) (phenyl)amino)-6-(4-(4-fluorophenoxy)phenyl)picolinic acid] yielded an IC50 of 3.83 ± 0.64 µM. With `NC(=O)c1cc(N2CCC(C(N)=O)CC2)cc(-c2ccc(Oc3ccc(F)cc3)cc2)n1` [compound 56, 4-(4-carbamoylpiperidin-1-yl)-6-(4-(4-fluorophenoxy)phenyl) picolinamide] the IC50 was 0.31 ± 0.05 µM. Work on `N#Cc1cc(Oc2ccc(-c3cc([C@H](O)CO)cc(C(N)=O)n3)cc2)ccc1C(F)(F)F` [compound 33, (S)-6-(4-(3-cyano-4-(trifluoromethyl)phenoxy)phenyl)-4-(1,2-dihydroxyethyl) picolinamide] yielded an IC50 of 0.5 ± 0.07 µM. In the case of `O=C(NCCN1CCCCC1)c1cc(-c2nnn[nH]2)cc(-c2ccc(Oc3ccc(F)cc3)cc2)n1` [compound 86, 6-(4-(4-fluorophenoxy)phenyl)-N-(2-(piperidin-1-yl)ethyl)-4-(1H-tetrazol-5-yl) picolinamide], the IC50 is reported as 9.21 ± 1.15 µM. Compound `O=C(c1cc(N2CCNCC2)cc(-c2ccc(Oc3ccc(F)cc3)cc2)n1)N1CCNCC1` [compound 78, (6-(4-(4-fluorophenoxy)phenyl)-4-(piperazin-1-yl)pyridin-2-yl) (piperazin-1-yl) methanone] has an IC50 of 10 to 20 µM.
